Results from patent publication US20040229791A1, “Compositions and methods of modulating TGF-beta activity by fatty acids” (priority 2002, published 2004).

T1: TGF-β1-α2M* complex (Homo sapiens, UniProt P01023)
T1 construct: was purified from pooled citrate-treate human plasma; from tissue; host or cells: pooled citrate-treated human plasma
T1 sequence (P01023 24-1474): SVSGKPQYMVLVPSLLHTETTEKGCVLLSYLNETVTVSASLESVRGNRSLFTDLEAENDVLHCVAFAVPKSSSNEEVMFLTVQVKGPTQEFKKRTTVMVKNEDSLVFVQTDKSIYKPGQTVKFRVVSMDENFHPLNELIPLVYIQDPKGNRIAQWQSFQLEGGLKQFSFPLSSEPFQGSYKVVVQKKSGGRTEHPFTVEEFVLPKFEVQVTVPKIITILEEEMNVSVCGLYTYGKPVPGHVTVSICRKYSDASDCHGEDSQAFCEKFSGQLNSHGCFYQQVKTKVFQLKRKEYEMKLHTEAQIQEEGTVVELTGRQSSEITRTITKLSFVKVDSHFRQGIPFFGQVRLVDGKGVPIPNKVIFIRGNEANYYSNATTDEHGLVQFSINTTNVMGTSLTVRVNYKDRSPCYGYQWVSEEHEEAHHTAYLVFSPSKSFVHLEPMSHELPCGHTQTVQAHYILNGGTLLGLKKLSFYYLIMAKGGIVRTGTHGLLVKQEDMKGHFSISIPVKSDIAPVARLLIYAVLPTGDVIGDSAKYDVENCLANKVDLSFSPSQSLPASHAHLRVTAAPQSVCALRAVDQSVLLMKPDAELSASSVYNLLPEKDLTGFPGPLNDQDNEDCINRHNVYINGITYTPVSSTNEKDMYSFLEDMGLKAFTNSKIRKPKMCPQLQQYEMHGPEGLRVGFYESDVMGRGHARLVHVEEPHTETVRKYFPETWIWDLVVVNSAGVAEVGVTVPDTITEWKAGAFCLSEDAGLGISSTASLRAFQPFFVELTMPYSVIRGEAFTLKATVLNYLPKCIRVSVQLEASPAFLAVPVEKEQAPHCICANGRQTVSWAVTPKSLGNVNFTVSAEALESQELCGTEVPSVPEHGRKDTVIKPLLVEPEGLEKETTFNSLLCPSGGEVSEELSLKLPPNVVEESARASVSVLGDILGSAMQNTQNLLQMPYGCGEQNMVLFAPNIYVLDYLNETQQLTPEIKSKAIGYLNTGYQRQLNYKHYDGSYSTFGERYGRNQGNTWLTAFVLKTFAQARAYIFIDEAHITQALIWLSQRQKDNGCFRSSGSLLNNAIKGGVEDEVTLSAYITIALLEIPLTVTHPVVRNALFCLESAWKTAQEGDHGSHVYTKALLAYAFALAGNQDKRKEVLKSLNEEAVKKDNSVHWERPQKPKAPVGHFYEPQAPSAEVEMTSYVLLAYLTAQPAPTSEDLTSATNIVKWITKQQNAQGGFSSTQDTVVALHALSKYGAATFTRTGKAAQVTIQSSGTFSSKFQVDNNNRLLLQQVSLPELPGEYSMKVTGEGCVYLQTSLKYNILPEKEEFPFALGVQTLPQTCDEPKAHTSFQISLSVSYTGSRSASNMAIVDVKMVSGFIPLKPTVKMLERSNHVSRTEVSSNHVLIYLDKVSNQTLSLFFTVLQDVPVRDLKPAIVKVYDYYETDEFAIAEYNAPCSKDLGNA

B1: TGF-β2: transforming growth factor β isoform 2, 25-kDa dimeric protein (protein, UniProt P61812 303-414, looked up)
Transforming growth factor …: ALDAAYCFRNVQDNCCLRPLYIDFKRDLGWKWIHEPKGYNANFCAGACPYLWSSDTQHSRVLSLYNTINPEASASPCCVSQDLEPLTILYYIGKTPKIEQLSNMIVKSCKCS

Tests used:
[1] = molecular target: T1, TGF-β1-α2M* complex; test: Inhibition of 125I-TGF-β1 and α2M* complex formation (5% non-denaturing PAGE, autoradiography); type: binding; conditions: for IC50: ~1 nM 125I-TGF-β1, 10 μg α2M* in 0.05 ml, 30 min room temperature, non-denaturing PAGE, read-out: IC50 for inhibiting complex formation between TGF-β1 and α2M*
Method: Saturated and unsaturated fatty acids are present in plasma and tissues (25,26). The effects of various concentrations of saturated fatty acids on the formation of complexes between ^125I-TGF ? β1 and ? 2M* were examined. ^125I-TGF- ? 1 (1 nM) was incubated μg/ml) in the presence of various concentrations of n-caprylic acid ([…]), lauric acid (12 carbon atoms), myristic acid (14 carbon atoms), palmitic acid (16 carbon atoms) and stearic acid (18 carbon atoms). After 30 min at room temperature, the reaction mixture was analyzed by 5% non-denaturing PAGE and autoradiography, a standard method form determining complex formation between TGF-β and α2M* (12). […] At 100 μM, it inhibited 20% of the complex formation between TGF ? β1 and α2M*. Esterification consistently abolished the inhibitory activities of the fatty acids.
Complex formation of ^125I-TGF-β and ? 2M*—The reaction mixture contained 10 μg of . α2M*, ˜1 nM of ^125I-TGF- ? 1, ^125I-TGF ? β2 or ^125I-TGF ? acids (dissolved in 100% ethanol) in 0.05 ml of 50 mM HEPES-NaOH buffer, pH 7.4. The final concentration of ethanol in the reaction mixture was 0.5%. These fatty acids and fatty acid derivatives were soluble under the experimental conditions. After 30 min at room temperature, the complex formation of ^125I-TGF- ? and. α2M* was determined by 5% non-denaturing polyacrylamide gel electrophoresis (PAGE) or by 7.5% SDS-PAGE following cross-linking by 0.6 mM DSS. After electrophoresis, the gel was stained with Coomassie blue and analyzed by autoradiography. The ^125I-TGF- ? - ? 2M* complex which co-migrated with free ? 2M* was quantified using a PhosphoImager (Fuji).

[2] = test system: Mv1Lu cells; test: [Methyl-3H]-thymidine incorporation assay, TGF-β2-induced growth inhibition; type: cell-based, mink; conditions: 1 pM, absence of α2M*
Source text: The levels of TGF ? β and ? 2M* also increase dramatically. α2M* is capable of inhibiting TGF- ? activity by forming complexes with TGF- ? and thus preventing it from binding to TGF ? β receptors in cells involved. Fatty acids may potentiate TGF ? β activity by blocking complex formation of ? 2M* and TGF ? β under these conditions. To test this possibility, we determined the effects of arachidonic acid on ^125I-TGF- ? 2 binding (in the presence and absence of α2M*) to Mv1Lu cells. ? 2M* is known to inhibit TGF- ? 2 more strongly than TGF ? β1 binding to T receptors in cells (13). Various concentrations of ^125I-TGF- ? 2 were preincubated with 200 μg/ml of ? 2M* in the presence or absence of 30 μM arachidonic acid for 30 min prior to the performance of binding assays in Mv1Lu cells. […] The residual ^125I-TGF- ? binding associated with the cells after ? 2M* inhibition was mainly due to non-specific binding of ^125I-TGF- ? 2. […] In the presence of 200 μg/ml of ? 2M*, the dose-response curve of TGF ? β2 shifted to the right. […] Addition of arachidonic acid at 0.5 and 1 μM reversed the inhibitory effect of. α2M* on TGF- ? 2-induced growth inhibition as measured by [methyl-^3H]-thymidine incorporation.
[Methyl-^3H]-Thymidine Incorporation Assay—Mv1Lu cells were plated at a cell density of 7.5×10^4 cells/well in DMEM containing 0.1% fetal calf serum in 48-well cluster dishes. After 4 hr at 37° C. (to allow cell adherence), cells were treated with various concentrations of TGF- ? 2,2M* (0 or 200 μg/ml) and arachidonic acid ([…] or 1 μM). After 1h at 37° C., cells were pulsed with 1 μCi/ml [methyl-^3H]-thymidine for 2 hr. The [methyl-^3H]-th incorporation into cellular DNA was carried out in triplicate as described previously (23).

Row | Molecule | IC50 [1] [µM] | also measured
1 | CCCCCCCC/C=C\CCCCCCCC(=O)O [oleic acid] | 5.2 ± 2 | –
2 | CCCCCCCCCCCCCCCC(=O)O [palmitic acid] | 8.5 ± 1 | –
3 | CCCCCC/C=C\CCCCCCCC(=O)O [palmitoleic acid] | – | activity compared with saturated counterparts of identical chain length [1]: weaker than their saturated counterparts
4 | CCCCCCCCCCCCCCCCCC(=O)O [stearic acid] | 6.6 ± 0.9 | –
5 | CCCCC/C=C\C/C=C\C/C=C\CCCCC(=O)O [γ-linolenic acid] | 8 ± 2 | –
6 | B1 | – | inhibition of [methyl-3H]-thymidine incorporation into DNA [2]: approximately 25%
